Source: US20180360856A1, “ANTI-BACTERIAL COMPOUNDS” (Auspherix Limited, priority 2015, published 2018)

What was measured:
[1] = tested on: human hepatocyte cell line (HepG2); conditions: 24 h
Description: Cell counting kit-8 (Sigma, CCK-8) assays were performed to assess the effect of compounds on cell viability. The assay is based on the reduction of a water-soluble tetrazolium salt (WST-8) by cellular dehydrogenases to a formazan dye which can be detected spectroscopically. 96-well plates were seeded with the human hepatocyte cell line (HepG2) at approximately 8×10^3 cells per well in Eagle's Minimum Essential Medium (EMEM) with Earle's salts and sodium bicarbonate supplemented with 10% heat-inactivated foetal bovine serum 2 mM glutamine and 1% non-essential amino acids (NEAA). The following day serial dilutions of compounds (dissolved and diluted in DMSO) were added to the cells in duplicates. Control wells included an ‘untreated’ control where cells were grown in the presence of 1% DMSO and a ‘medium only’ control (plus 1% DMSO). After 24 hours CCK-8 reagent (10 μl) was added to each well and cell viability was assessed by measuring the absorbance at a wavelength of 450 nm after 2-3h hours. Only living cells can reduce the tetrazolium salts into coloured formazan products. Results were expressed as 50% growth inhibition (TD50) values compared to ‘untreated’ control.

Gram negative bacteria = conditions: cited from earlier work
E.coli (ATCC 25922) = assay: Growth assay variation, E. coli (MIC); format: cell-based; conditions: ATCC 25922, Luria broth, incubation without shaking
Description: (§1) Stock solution of the test compounds (20 mg/ml) in dimethyl sulfoxide (DMSO) were serially diluted in DMSO and each diluted compound added in duplicate to a 96-well plate to a final DMSO concentration of 2% (v/v). An overnight culture of S. aureus (Oxford strain) grown in tryptic soy broth (TSB) was diluted to approximately 5×10^7 cfu/ml and 150 μl of this sample was added to each well of the 96-well plates. Control wells included an ‘untreated’ control with bacteria in TSB in the presence of 2% DMSO and a negative sample (containing 150p1 TSB growth media in the presence of 2% DMSO). Plates were incubated in a shaking incubator at 37° C. for 22-24 hours and bacterial growth assessed by absorbance at a wavelength of 595 nm. The minimum inhibitory concentration (MIC) was defined as the lowest concentration of compound that inhibited growth compared to the no-treatment control.
(§2) Klebsiella pneumoniae, Acinetobacter baumannnii or E.coli (ATCC 25922): use of 1/100 overnight dilution to set up assay, medium used: Luria broth (LB); incubation without shaking.

Klebsiella pneumoniae = assay: Growth assay variation, Klebsiella pneumoniae (MIC); format: cell-based; conditions: Luria broth, incubation without shaking
Description: as §1, §2

[2] = tested on: P.aeruginosa (ATCC 27853); assay: Growth assay variation, P. aeruginosa (MIC); format: cell-based; conditions: ATCC 27853, CaMHB, incubation without shaking
Description: as §1
P.aeruginosa (ATCC 27853): use of 1/100 overnight dilution to set up assay, medium used: Cation adjusted Mueller Hinton broth (CaMHB); incubation without shaking.

[3] = tested on: S. aureus (Oxford strain); assay: Growth assay for S. aureus (MIC); format: cell-based; conditions: TSB, 37° C., 22-24 hours
Description: as §1

Compound	HepG2 cell TD50 [1] [µg/mL]	also measured
C[P](C)(C)=[Au][S]c1ccc(F)cc1C(=O)O [Compound 18]	18	–
CC[P](CC)(CC)=[Au][S][C@@H]1O[C@H](COC(C)=O)[C@@H](OC(C)=O)[C@H](OC(C)=O)[C@H]1OC(C)=O [Auranofin]	–	activity against the majority of Gram negative bacteria (Gram negative bacteria): not been shown to have any significant activity
C[P](C)(C)=[Au][S]c1cc(C(F)(F)F)ccn1 [Compound 14]	3	–
COc1cccc([S][Au]=[P](C)(C)C)c1 [Compound 10]	2	–
CNC(=O)C[S][Au]=[P](C)(C)C [Compound 2]	6	–
C[P]1(=[Au][S]c2ccc(F)cc2C(=O)O)CCCCC1 [Compound 30]	19	–
C[P](C)(C)=[Au][S]c1ccc(C(=O)O)cc1 [Compound 26]	13	–
C[P]1(=[Au][S]c2ccccc2C(=O)O)CCCC1 [Compound 28]	11	–
C[P](C)(C)=[Au][S]C1CCC(F)(F)CC1 [Compound 35]	4	–
C[P](C)(C)=[Au][S]c1cccc(C(F)(F)F)c1 [Compound 8]	3	–
C[P](C)(C)=[Au][S]c1cccc(S(C)(=O)=O)c1 [Compound 34]	1	–
C[P](C)(C)=[Au][S]c1ncc[nH]1 [Compound 7]	6	–
C[P]1(=[Au][S]c2nnn[nH]2)CCCCC1 [Compound 31]	45	–
C[P](C)(C)=[Au][S]c1ccc(C(N)=O)cn1 [Compound 16]	17	–
Dimethyl[2-(methyl)thiazole]phosphine gold(I) chloride [Compound I-49]	–	E. coli MIC (E.coli (ATCC 25922)): 6.3 to 12.5 µg/mL; K. pneumoniae MIC (Klebsiella pneumoniae): 12.5 to 25 µg/mL; P. aeruginosa MIC [2]: 25 µg/mL; S. aureus MIC [3]: ≤0.8 to 1.6 µg/mL
COc1ccc([S][Au]=[P](C)(C)C)cc1OC [Compound 5]	3	–
C[P](C)(C)=[Au][S]c1ccccc1C(F)(F)F [Compound 9]	3	–
C[P](C)(C)=[Au][S]c1ccccc1C(=O)O [Compound 6]	11.5	–

Compound	HepG2 cell TD50 [1] [µg/mL]	also measured
CC[P](C)(C)=[Au][S]c1ccccc1C(=O)O [Compound 36]	–	S. aureus MIC [3]: <0/8
C[P](C)(C)=[Au][S]c1ccc(C(F)(F)F)cn1 [Compound 13]	2.5	–
Cc1nnc([S][Au]=[P](C)(C)C)n1C [Compound 1]	2	–
Cn1nnnc1C[S][Au]=[P](C)(C)C [Compound 33]	4	–
C[P](C)(C)=[Au][S]c1nnn[nH]1 [Compound 15]	23	–
C[P]1(=[Au][S]c2ccccc2C(=O)O)CCOCC1 [Compound 29]	35	–
C[P](C)(C)=[Au][S]c1ncco1 [Compound 4]	4	–
C[P]1(=[Au][S]c2nnn[nH]2)CCCC1 [Compound 32]	11	–
CC(=O)Oc1ccc([S][Au]=[P](C)(C)C)cc1OC(C)=O [Compound 23]	2	–
COc1ccc([S][Au]=[P](C)(C)C)cc1 [Compound 17]	3.5	–
CC[P](C)(C)=[Au][S]c1ncco1 [Compound 12]	5	–
C[P](C)(C)=[Au][S]c1ccc(S(C)(=O)=O)cc1 [Compound 11]	2	–
C[P](C)(C)=[Au][S]c1cccc(C(=O)O)c1 [Compound 25]	22	–
C[P]1(=[Au][S]c2ccccc2C(=O)O)CCCCC1 [Compound 27]	22	–
CP1CCS(=O)(=O)CC1.[Cl][Au] [Compound I-44, 4-Methyl-[1,4]sulfonylphosphinane gold(I) chloride]	–	E. coli MIC (E.coli (ATCC 25922)): 25 to 100 µg/mL; K. pneumoniae MIC (Klebsiella pneumoniae): 50 to 100 µg/mL; P. aeruginosa MIC [2]: 6.3 to 50 µg/mL; S. aureus MIC [3]: 6.3 to 25 µg/mL
CCOC(=O)CNC(=O)[C@H](C[S][Au]=[P](C)(C)C)NC(=O)CC[C@H](NC(C)=O)C(=O)OCC [Compound 3]	32	–
Dimethyl[2-(methyl)oxazole]phosphine gold(I) chloride [Compound I-50]	–	E. coli MIC (E.coli (ATCC 25922)): 6.3 to 12.5 µg/mL; K. pneumoniae MIC (Klebsiella pneumoniae): 12.5 to 25 µg/mL; P. aeruginosa MIC [2]: 12.5 to 25 µg/mL; S. aureus MIC [3]: 1.6 to 3.1 µg/mL
